Source: US20210347662A1, “METHODS AND APPARATUS FOR CONTROLLING OR […] TIDE” (priority 2020, published 2021)

How the values were obtained:
K. brevis [1] = assay: K. brevis cell count in test tubes of sea water after adding red tide inhibitors; assay type: cell-based, Karenia brevis; conditions: 10 ml Gulf of Mexico sea water, initial count at least 1 million K. brevis cells per liter; one drop of concentrated solution or 5 mg solid; counted after two minutes
Procedure: Experiments were performed to determine the K. brevis count with various red tide inhibitors.
A microscope with magnification up to 2500 times, was used along with a gridded Sedgewick-Rafter counting slide to record K. brevis cell counts. Testing was performed on Gulf of Mexico sea water containing K. brevis with an initial K. brevis cell count of at least 1 million K. brevis cells per liter. Test tubes contained 10 ml. each of this sea water, to which the following salts and other chemicals were added. For a concentrated solution of the additive, one drop is added and for solid additives, 5 mg is added. The test tubes contents containing the additives were gently mixed and then counts tabulated after two minutes.
Table 1 identifies the additives tested and the resultant cell count.

K. brevis [2] = assay: Microscope slide droplet test of additives on living K. brevis; assay type: cell-based, Karenia brevis; conditions: microscopy; drop of Gulf of Mexico marine water with at least hundreds of living K. brevis organisms to start; a droplet of additive solution or about 1 to 0 mg solid added

Row | Compound | Cell Count (K. brevis [1]) | Experimental Results (K. brevis [2])
1 | calcium sulfate [Concentrated calcium sulfate solution] | None | No living K. brevis
2 | CN(C)c1ccc2nc3ccc(=[N+](C)C)cc-3sc2c1 [Dilute methylene blue solution, methylene blue] | Very few | No living K. brevis
3 | O=S(=O)([O-])[O-].[Cu+2] [Concentrated copper sulfate solution, copper sulfate] | None | No living K. brevis
4 | C[N+](C)(C)C.[Cl-] [tetamethylammonium chloride] |  | No living K. brevis
5 | O=S(=O)([O-])[O-].[Mg+2] [Concentrated magnesium sulfate solution, magnesium sulfate] | None | No living K. brevis
6 | [Cl-].[Na+] [Concentrated salt solution, sodium chloride] | None | No living K. brevis
7 | [Ca+2].[OH-].[OH-] [calcium hydroxide] |  | No living K. brevis
8 | CN.Cl [methylammonium chloride] |  | No living K. brevis
9 | [O]=[Ca] [Solid calcium oxide, calcium oxide] | None | 
